Experimental data reported in patent publication US20100092526A1, “NANOEMULSION THERAPEUTIC COMPOSITIONS AND METHODS OF USING THE SAME” (NanoBio Corporation, priority 2008, published 2010).
In brackets after ≈: the same amount, converted by molar mass. Several values for one entry are separate records, joined by “and”; a condition that tells them apart may be missing. Identical values can stand only once. Like-named read-outs stand apart in the source and are kept apart here.

How the values were obtained:
Type in all cases: cell-based
Acinetobacter baumannii = assay: MIC/MBC of nanoemulsions against gram-negative isolates (CLSI, alamar blue); settings: for % resistant / % susceptible / MIC50: Acinetobacter baumannii (n = 5); for MIC50: nanoemulsions in the presence of 5 mM EDTA
[1] = tested on: Stenotrophomonas maltophilia; assay: as above; settings: for MIC50: Stenotrophomonas maltophilia (n = 5), nanoemulsions in the presence of 5 mM EDTA
[2] = tested on: methicillin-resistant Staphylococcus aureus (MRSA); assay: Susceptibility (MIC/MBC) of MRSA clinical isolates; settings: for MBC50(15) / MIC50(15) / MBC90(26) / MIC90(26): 29 MRSA clinical isolates; for MBC50(15) / MIC50(15): rank 15; for MBC90(26) / MIC90(26): rank 26
Haemophilus influenzae = assay: Susceptibility (MIC/MBC) of H. influenzae clinical isolates; settings: for MIC / MIC90: Haemophilus influenzae; for MIC90 / MIC Range: H. influenzae isolates of Table 6
Klebsiella pneumoniae = assay: MIC/MBC of nanoemulsions against gram-negative isolates (CLSI, alamar blue); settings: Klebsiella pneumoniae (n = 5); for MIC50 / MIC Range: nanoemulsions in the presence of 5 mM EDTA; for MIC Range: in µg/mL
Escherichia coli = assay: as above; settings: Escherichia coli (n = 5)
Proteus mirabilis = assay: as above; settings: Proteus mirabilis (n = 5); for MIC50 / MIC Range: nanoemulsions in the presence of 5 mM EDTA
Pseudomonas aeruginosa = assay: as above; settings: Pseudomonas aeruginosa (n = 5); for MIC50 / MIC Range: nanoemulsions in the presence of 5 mM EDTA
Burkholderia cepacia = assay: as above; settings: Burkholderia cepacia (n = 5), nanoemulsions in the presence of 5 mM EDTA; for MIC Range: in µg/mL
[3] = individual MRSA clinical isolates, values listed by rank order 1-29
[4] = strain 30, nanoemulsion values as μg CPC/ml or μg BA/ml
[5] = strain 32, nanoemulsion values as μg CPC/ml or μg BA/ml
[6] = strain 33, nanoemulsion values as μg CPC/ml or μg BA/ml
[7] = strain 34, nanoemulsion values as μg CPC/ml or μg BA/ml
[8] = strain 35, nanoemulsion values as μg CPC/ml or μg BA/ml
[9] = strain 36, nanoemulsion values as μg CPC/ml or μg BA/ml
[10] = strain 37, nanoemulsion values as μg CPC/ml or μg BA/ml
[11] = strain 38, nanoemulsion values as μg CPC/ml or μg BA/ml
[12] = strain 41, nanoemulsion values as μg CPC/ml or μg BA/ml
[13] = strain 42, nanoemulsion values as μg CPC/ml or μg BA/ml
[14] = strain 49247, nanoemulsion values as μg CPC/ml (P4075EC, W205EC) or μg BA/ml (W205GBA2)
[15] = nanoemulsion values as μg CPC/ml or μg BA/ml
[16] = Staphylococcus aureus, MRSA isolates, read-out: MIC90
[17] = silver nitrate column, individual MRSA clinical isolates by rank order 1-29
[18] = nanoemulsions in the presence of 5 mM EDTA

O=C(O)CN(CCN(CC(=O)O)CC(=O)O)CC(=O)O [EDTA, ethylenediaminetetraacetic acid]
strains inhibited by EDTA alone (Acinetobacter baumannii; 5 isolates, 5 mM EDTA): 3 strains | strains inhibited by EDTA alone ([1]; 5 isolates, 5 mM EDTA): 5 strains

C/C(=C\C(=O)OCCCCCCCCC(=O)O)C[C@@H]1OC[C@H](C[C@@H]2O[C@H]2[C@@H](C)[C@H](C)O)[C@@H](O)[C@H]1O [Mupirocin, mupirocin]
isolates resistant ([2]; MRSA isolates): 31%

Cc1onc(-c2ccccc2)c1C(=O)N[C@@H]1C(=O)N2[C@@H]1SC(C)(C)[C@@H]2C(=O)O [Ox]
MBC50(15) [2]: >16 µg/mL | MIC50(15) [2]: >16 µg/mL | MBC90(26) [2]: >16 µg/mL | MIC90(26) [2]: >16 µg/mL | MBC [2, 3]: >16 μg/ml (28×) and 1 μg/ml | MIC [2, 3]: >16 μg/ml (26×) and 16 μg/ml (2×) and 0.5 μg/ml

COc1cc(Cc2cnc(N)nc2N)cc(OC)c1OC [Trim]
MBC50(15) [2]: 0.5 µg/mL (≈ 1.72 µM) | MIC50(15) [2]: 0.125 µg/mL (≈ 0.431 µM) | MBC90(26) [2]: >4 µg/mL | MIC90(26) [2]: 0.5 µg/mL (≈ 1.72 µM) | MBC [2, 3]: >64 μg/ml and >16 μg/ml (2×) and >4 μg/ml and >2 μg/ml (3×) and 4 μg/ml and 2 μg/ml (3×) and 1 μg/ml (2×) and 0.5 μg/ml (5×) and 0.25 μg/ml (6×) and 0.125 μg/ml (4×) and 0.0125 μg/ml | MIC [2, 3]: >64 μg/ml and 1 μg/ml (2×) and 0.5 μg/ml and 0.25 μg/ml and 0.125 μg/ml (24×)

CN[C@H](CC(C)C)C(=O)N[C@H]1C(=O)N[C@@H](CC(N)=O)C(=O)N[C@H]2C(=O)N[C@H]3C(=O)N[C@H](C(=O)N[C@H](C(=O)O)c4cc(O)cc(O)c4-c4cc3ccc4O)[C@H](O)c3ccc(c(Cl)c3)Oc3cc2cc(c3O[C@@H]2O[C@H](CO)[C@@H](O)[C@H](O)[C@H]2O[C@H]2C[C@](C)(N)[C@H](O)[C@H](C)O2)Oc2ccc(cc2Cl)[C@H]1O [Vanco]
MBC50(15) [2]: 1 µg/mL (≈ 0.69 µM) | MIC50(15) [2]: 1 µg/mL (≈ 0.69 µM) | MBC90(26) [2]: 2 µg/mL (≈ 1.38 µM) | MIC90(26) [2]: 1 µg/mL (≈ 0.69 µM) | MBC [2, 3]: 4 μg/ml (3×) and 2 μg/ml (7×) and 1 μg/ml (16×) and 0.5 μg/ml (3×) | MIC [2, 3]: 2 μg/ml and 1 μg/ml (20×) and 0.5 μg/ml (8×)

CC1(C)S[C@@H]2[C@H](NC(=O)[C@H](N)c3ccccc3)C(=O)N2[C@H]1C(=O)O [ampicillin]
MIC (Haemophilus influenzae; [4]): 0.25 µg/mL (≈ 0.715 µM) | MIC (Haemophilus influenzae; [5]): 32 µg/mL (≈ 91.6 µM) | MIC (Haemophilus influenzae; [6]): 0.25 µg/mL (≈ 0.715 µM) | MIC (Haemophilus influenzae; [7]): > 32 µg/mL | MIC (Haemophilus influenzae; [8]): 0.25 µg/mL (≈ 0.715 µM) | MIC (Haemophilus influenzae; [9]): 0.125 µg/mL (≈ 0.358 µM) | MIC (Haemophilus influenzae; [10]): > 32 µg/mL | MIC (Haemophilus influenzae; [11]): 0.25 µg/mL (≈ 0.715 µM) | MIC (Haemophilus influenzae; [12]): > 32 µg/mL | MIC (Haemophilus influenzae; [13]): > 32 µg/mL | MIC (Haemophilus influenzae; [14]): 4 µg/mL (≈ 11.4 µM) | MIC90 (Haemophilus influenzae; [15]): > 32 µg/mL

CC[C@H]1OC(=O)[C@H](C)[C@@H](O[C@H]2C[C@@](C)(OC)[C@@H](O)[C@H](C)O2)[C@H](C)[C@@H](O[C@@H]2O[C@H](C)C[C@H](N(C)C)[C@H]2O)[C@](C)(O)C[C@@H](C)CN(C)[C@H](C)[C@@H](O)[C@]1(C)O [azithromycin]
susceptibility of the majority of isolates by MIC90 values (Haemophilus influenzae; H. influenzae): susceptible | MIC Range (Haemophilus influenzae; [15]): 1 to 8 µg/mL | MIC (Haemophilus influenzae; [4]): 2 µg/mL (≈ 2.67 µM) | MIC (Haemophilus influenzae; [5]): 8 µg/mL (≈ 10.7 µM) | MIC (Haemophilus influenzae; [6]): 1 µg/mL (≈ 1.34 µM) | MIC (Haemophilus influenzae; [7]): 1 µg/mL (≈ 1.34 µM) | MIC (Haemophilus influenzae; [8]): 1 µg/mL (≈ 1.34 µM) | MIC (Haemophilus influenzae; [9]): 2 µg/mL (≈ 2.67 µM) | MIC (Haemophilus influenzae; [10]): 1 µg/mL (≈ 1.34 µM) | MIC (Haemophilus influenzae; [11]): 1 µg/mL (≈ 1.34 µM) | MIC (Haemophilus influenzae; [12]): 2 µg/mL (≈ 2.67 µM) | MIC (Haemophilus influenzae; [13]): 1 µg/mL (≈ 1.34 µM) | MIC (Haemophilus influenzae; [14]): 1 µg/mL (≈ 1.34 µM) | MIC90 (Haemophilus influenzae; [15]): 2 µg/mL (≈ 2.67 µM)

CCC[C@@H]1C[C@@H](C(=O)N[C@@H]([C@H]2O[C@H](SC)[C@H](O)[C@@H](O)[C@H]2O)[C@H](C)Cl)N(C)C1 [clindamycin]
MIC Range (Haemophilus influenzae; [15]): 4 to 16 µg/mL | MIC (Haemophilus influenzae; [4]): 16 µg/mL (≈ 37.6 µM) | MIC (Haemophilus influenzae; [5]): 8 µg/mL (≈ 18.8 µM) | MIC (Haemophilus influenzae; [6]): 16 µg/mL (≈ 37.6 µM) | MIC (Haemophilus influenzae; [7]): 16 µg/mL (≈ 37.6 µM) | MIC (Haemophilus influenzae; [8]): 8 µg/mL (≈ 18.8 µM) | MIC (Haemophilus influenzae; [9]): 16 µg/mL (≈ 37.6 µM) | MIC (Haemophilus influenzae; [10]): 4 µg/mL (≈ 9.41 µM) | MIC (Haemophilus influenzae; [11]): 16 µg/mL (≈ 37.6 µM) | MIC (Haemophilus influenzae; [12]): 8 µg/mL (≈ 18.8 µM) | MIC (Haemophilus influenzae; [13]): 4 µg/mL (≈ 9.41 µM) | MIC (Haemophilus influenzae; [14]): 8 µg/mL (≈ 18.8 µM) | MIC90 (Haemophilus influenzae; [15]): 16 µg/mL (≈ 37.6 µM) | MIC90 [2, 16]: > 64 µg/mL

C[C@H]1c2cccc(O)c2C(=O)C2=C(O)[C@]3(O)C(=O)C(C(N)=O)=C(O)[C@@H](N(C)C)[C@@H]3[C@@H](O)[C@@H]21 [doxycycline]
MIC90 [2, 16]: 4 µg/mL (≈ 9 µM)

O=[N+]([O-])[O-].[Ag+] [silver nitrate]
MIC90 ([2]; MRSA isolates): 0.00063% | MBC50(15) ([2]; silver nitrate column): 0.0025 µg/mL | MIC50(15) ([2]; silver nitrate column): 0.00031 µg/mL | MBC90(26) ([2]; silver nitrate column): >0.01 µg/mL | MIC90(26) ([2]; silver nitrate column): 0.00063 µg/mL | MBC [2, 17]: 0.01 μg/ml and >0.01 μg/ml (3×) and >0.005 μg/ml (3×) and 0.005 μg/ml and 0.0025 μg/ml (12×) and 0.00125 μg/ml (9×) | MIC [2, 17]: 0.0025 μg/ml and 0.00125 μg/ml (2×) and 0.00626 μg/ml (7×) and 0.00312 μg/ml (19×)

Cc1cc(NS(=O)(=O)c2ccc(N)cc2)no1 [sulfamethoxazole]
MIC90 [2, 16]: 4 µg/mL (≈ 15.8 µM)

COc1cc(Cc2cnc(N)nc2N)cc(OC)c1OC [trimethoprim]
MIC90 [2, 16]: 0.5 µg/mL (≈ 1.72 µM)

CN[C@H](CC(C)C)C(=O)N[C@H]1C(=O)N[C@@H](CC(N)=O)C(=O)N[C@H]2C(=O)N[C@H]3C(=O)N[C@H](C(=O)N[C@H](C(=O)O)c4cc(O)cc(O)c4-c4cc3ccc4O)[C@H](O)c3ccc(c(Cl)c3)Oc3cc2cc(c3O[C@@H]2O[C@H](CO)[C@@H](O)[C@H](O)[C@H]2O[C@H]2C[C@](C)(N)[C@H](O)[C@H](C)O2)Oc2ccc(cc2Cl)[C@H]1O [vancomycin]
cidality ([2]; MRSA, ratio of MBC90/MIC90): bactericidal (A compound or nanoemulsion is defined as bactericidal if its MBC/MIC ratio was ˜4) | MIC90 ([2]; Staphylococcus aureus, MRSA): 1 µg/mL (≈ 0.69 µM)

Gentamicin
% resistant (Klebsiella pneumoniae): 0.0% | % susceptible (Klebsiella pneumoniae): 100.0% | MIC50 (Klebsiella pneumoniae): ≤ 2 µg/mL | MIC Range (Klebsiella pneumoniae): <=2 | % resistant (Escherichia coli): 20.0% | % susceptible (Escherichia coli): 80.0% | MIC50 (Escherichia coli; [18]): ≤ 2 µg/mL | % resistant (Proteus mirabilis): 0.0% | % susceptible (Proteus mirabilis): 100.0% | MIC50 (Proteus mirabilis): ≤ 2 µg/mL | MIC Range (Proteus mirabilis; in µg/mL): <=2 | % resistant (Acinetobacter baumannii): 20.0% | % susceptible (Acinetobacter baumannii): 80.0% | MIC50 (Acinetobacter baumannii): ≤ 2 µg/mL | % resistant (Pseudomonas aeruginosa): 0.0% | % susceptible (Pseudomonas aeruginosa): 100.0% | MIC50 (Pseudomonas aeruginosa): ≤ 2 µg/mL | MIC Range (Pseudomonas aeruginosa): <=2-4 ^ | MIC50 (Burkholderia cepacia): > 8 µg/mL | MIC Range (Burkholderia cepacia): >8 | MIC50 [1]: > 8 µg/mL

Piperacillin/tazobactam
% resistant (Klebsiella pneumoniae): 0.0% | % susceptible (Klebsiella pneumoniae): 80.0% | MIC50 (Klebsiella pneumoniae): 2 µg/mL | MIC Range (Klebsiella pneumoniae): 1-64 | % resistant (Escherichia coli): 0.0% | % susceptible (Escherichia coli): 100.0% | MIC50 (Escherichia coli; [18]): 2 µg/mL | MIC Range (Escherichia coli; nanoemulsions in the presence of 5 mM EDTA, in µg/mL): 1-8 | % resistant (Proteus mirabilis): 0.0% | % susceptible (Proteus mirabilis): 100.0% | MIC50 (Proteus mirabilis): ≤ 0.5 µg/mL | MIC Range (Proteus mirabilis): <=0.5-1 ^ | % resistant (Acinetobacter baumannii): 20.0% | % susceptible (Acinetobacter baumannii): 80.0% | MIC50 (Acinetobacter baumannii): 2 µg/mL | % resistant (Pseudomonas aeruginosa): 0.0% | % susceptible (Pseudomonas aeruginosa): 100.0% | MIC50 (Pseudomonas aeruginosa): 2 µg/mL | MIC Range (Pseudomonas aeruginosa; in µg/mL): 2-16 | MIC50 (Burkholderia cepacia): 4 µg/mL | MIC Range (Burkholderia cepacia): 2-32 | MIC50 [1]: > 64 µg/mL
